Entries after “also recorded” stand apart in the source; their conditions may differ.

Data set [1] has as its system LLC-PK1 proximal tubule cells. As to conditions: results provided in Sandoval et al.; cited from earlier work.
Data set [2] has as its system Gram-positive and multi-drug-resistant Gram-negative bacteria. As to conditions: Sandoval et al.; cited from earlier work.
For data set [3], the system named is proximal convoluted tubules. Description: Kidney morphology and histology in rats (H&E, PAS, modified Jablonski score, gentamicin immunofluorescence). In kind it is in vivo, Sprague-Dawley rats. Conditions: six doses. The protocol: Morphologic evaluation of injury caused by gentamicin and its congeners was assessed by grading the extent of necrosis of the proximal convoluted tubules. Injury scores were assigned on the basis of the predominant pattern present. For indirect immunofluorescence, 100 μm-thick sections were cut on a vibratome and stained with the monoclonal anti-gentamicin antibody (Biodesign International, Saco, Me.) and a fluorescein-conjugated secondary antibody (Jackson Immunoresearch, West Grove, Pa.) and lightly counterstained with Alexa 647 phalloidin (Molecular Probes) to localize filamentous actin for visualization using confocal microscopy.
Histological sections were viewed with a Wide field Nikon microscope with an attached color CCD camera (Nikon, Melville, N.Y.). Fluorescence images were acquired using a Bio-Rad MRC 1024 confocal microscope (Bio-Rad, Hercules, Calif.) on a Nikon platform (The Fryer Co., Huntley, Ill.). Co-localization studies with Texas Red dextran, FITC-Helixpontatia, and gentamicin were conducted on a Zeiss 510 confocal microscope with images illuminated and acquired sequentially to eliminate bleed-over emissions from the different fluorescence emission spectra.
Again, these studies were conducted after 7 days of exposure, or six doses of gentamicin. This was to ensure that we would see any delayed nephrotoxicity from the […]. These studies occurred at a time when the native gentamicin-treated animals were recovering, as evidenced by a reduction in serum creatinine levels in these animals. Therefore, these studies likely underestimate the actual histological damage that occurred early on in animals treated with native gentamicin. […] In addition, large perinuclear vacuoles (FIG. 3 B, arrowheads) could be seen in the renal corticol area. […] Here, proximal tubules from native gentamicin treated rats contained cast material and shed cells in the lumen (thick arrow). In addition, many of the proximal table cells contained large vacuoles that localized around the nucleus (FIG. 3 B, arrowheads).
Referring now to FIG. 3 D-E, thin histological sections also were stained with PAS to localize the glycocalyx that was associated with the brush border membrane of proximal tubules. […]
Referring now to FIG. 3 G-H, when tissues from rats that were exposed to the native commercial gentamicin compound or the […] of gentamicin were processed for indirect immunofluorescence localization of gentamicin, a difference in the intracellular accumulation and distribution emerged. […] Tissue sections from rats that were treated with normal saline alone and processed identically for immunofluorescence localization produced no fluorescence associated with gentamicin localization (data not shown).

The subject of the next data set is viable cells. Description: Cytotoxicity by dye exclusion assay (FIG. 7). In kind it is cell-based. Conditions: viable cells treated vs untreated. How it is done:
FIG. 7 also includes information on the cell toxicity. Cytotoxicity was measured by comparing the number of viable cells in treated and untreated samples using a dye exclusion assay of the compounds tested. […] (the […]) was the most toxic compound tested 4.4 fold more toxic than the control (no added aminoglycoside) followed by […] (native gentamicin) 1.7 times more toxic than the control; the least toxic compound tested was […]

Another data set relates to UGAC stop codon. Description: Stop codon readthrough assay. As to conditions: 200 ug/ml, 24 hours. In kind it is cell-based.
The subject of the next data set is dystrophin. Description: Dystrophin immunohistochemistry in mdx mice after i.m. treatment. In kind it is in vivo. Conditions: about 1 or 5 mg/day, 7 days. How it is done: Eight mdx mice are treated with I.M. injections of either gentamicin or the […] of gentamicin (C2 in Formula I) four of the mice receive either gentamicin or the […] at a dose of about 1 mg/day and the other four mice receive the same compounds at a dose of about 5 mg/day. The animals are dosed over a period of 7 days. […] All mice are sacrificed, their skeletal muscle and their hearts are frozen and cryostat sectioned. The presence of dystrophin in these sections is investigated by immunohistochemistry. Strong dystrophin immunostaining is observed in the normal skeletal and heart muscles. In the untreated mdx muscles, dystrophin immunostaining is observed only in a few revertant fibers. […] The dystrophin staining is less intense in the muscles of mice treated with […]. Therefore a dose of about 8 to 40 mg per Kg of body weight per day of either gentamicin or the […] of gentamicin successfully suppresses the premature stop codon by inserting an amino acid, and continuing translation of […] nucleic acids. Subcutaneous and intravenous administration will provide the same results. The duration of the course of treatment may vary. […]

For the next data set, the system named is COS7 cells. Description: Cytotoxicity (cell death, % inviability) in COS7 cells. In kind it is cell-based. How it is done:
Gentamicin and various congeners isolated and purified by, for example, the HPLC techniques outlined in Sandoval et al. were tested to assess their level of cytotoxicity. Briefly, COS7 cells were grown in the presence of either 200 or 500 ug/ml of one of the following test compounds, the C1 or the C2 congeners of gentamicin or native gentamicin. As a control still another batch of COS7 cells were grown in absence of all of the test compounds.
Referring now to FIG. 6 cell inviability was determined for cells exposed to no test compound, native gentamicin or a congener of gentamicin; in this graph a high value indicate […]. Cell death (% inviability) was determined for each of the six conditions.

Another data set deals with LLC-PK1 cells. Description: Long-term (24 h) exposure: lysosome and Golgi complex localization in LLC-PK1 cells. Conditions: 24 h of continuous exposure.
For the next data set, the system named is Bacillus subtilus. The data set can be described thus: Bactericidal properties against Bacillus subtilus. The data set is classed as cell-based. How it is done: (§1) Referring now to Formula 1 and FIG. 1, 4 congeners can be isolated and purified from native gentamicin. Methods for isolating and purifying congeners include the following method. Briefly, separation of native gentamicin was carried out using a C18 column (250×4.60 mm) and the chromatograms was developed using a Waters 600e HPLC pump (Milford, Mass.). A gradient of 100% of a 0.1% (vol/vol) mixture of tri-fluoro-acetic acid in acetonitrile was used to develop the chronogram. […] There was no overlap between adjacent peaks. For all studies, the same lot of gentamicin was used. This ensured that the results obtained were independent of potential alteration in the ratio of gentamicin components. […] For additional discussion of this methodology please see, for example, Sandoval, et al.

Data set [4] has as its system multi-drug resistant form of Klebsiella pneumoniae. The data set can be described thus: Bactericidal properties against multi-drug resistant Klebsiella pneumoniae. In kind it is cell-based. The protocol:
as §1

Data set [5] can be described thus: Nephrotoxicity in rats: serum creatinine after six daily doses. The protocol: (§2) Differences in necrosis, apoptosis, and cell density among the various congeners on the human and porcine cell lines were determined using an ANOVA function with Systat 11 software (Systat Software, Point Richmond, Calif.). […] All reported values are mean±SEM.
We specifically used six daily doses for these studies to allow additional time for the C2 component to induce injury, because it is widely known that serum creatinine rises early in this model when native gentamicin is used.

Data set [6] has as its system LLC-PK1 proximal tubule cells. How it is done:
as §2
The nuclear dye propidium iodide is cell impermeant and labels only necrotic cells, characterized by permeable cell membranes; co-localization of the two dyes gives a reddish-pink color. […] Values are means±SEM. Bar=approximately 10 microns.
The nuclear dyes propidium iodide and Hoechst 33342 were used as markers for necrosis and apoptosis, respectively.

The next data set concerns IDUA and p53 genes. Conditions: cited from earlier work.
[7] abbreviates: LLC-PK1 cells, 24 hours of exposure.

Method for LLC-PK1 cells: During this period of exposure to native gentamicin or the congeners, lysosomes were labeled by adding a 10,000 molecular weight rhodamine dextran to the culture medium (0.5 mg/ml; Molecular Probes). The cells then were fixed and stained for indirect immunofluorescence and visualized via confocal microscopy. Briefly, the Golgi complex was localized with a fluorescein-conjugated lectin from Helix pornotia at 5 μg/ml (EY Laboratories, San Mateo, Calif.) diluted in solution that contained the CY-5 conjugated secondary antibody that was used in the indirect immunolocalization of gentamicin. Visualization of nonlysosomal, cytosolic gentamicin was carried out as described previously, using a Tyramide Signal Amplification (Molecular Probes).
In order to study long-term differences in the intracellular distribution of gentamicin, we undertook additional study of gentamicin distribution in LLC-PK1 cells. […]
Method for UGAC stop codon: The cells were exposed to 200 ug/ml of each compound for 24 hours.
The method used to assess readthrough is as follows.
In order to determine the optimal concentrations of the aminoglycosides to use in the mammalian translation system, increasing amounts of each aminoglycoside were added to a rabbit reticulocyte translation system while expressing the QX(N) (UGAC) construct. The effect of aminoglycoside addition on total protein synthesis was monitored by comparing the total amount of proteins synthesized in the presence and absence of various aminoglycosides. A range of aminoglycoside concentrations was then determined that allowed a maximal amount of termination suppression without inhibiting total protein synthesis more than two- to threefold. In vitro translation reactions were carried out using the TNT coupled transcription/translation system (Promega). […] The gel was dried and subjected to PhosphorImager analysis in order to quantitate the amount of truncated and full-length protein species. The percentage of readthrough was then calculated as the amount of full-length protein/(truncated+full-length species)×100.

Consider gentamicin C2, for which the “toxicity in cell culture” value in data set [1] is recorded as “nontoxic”. Moreover, the “bactericidal potency compared with native gentamicin and other congeners” value in data set [2] is listed as “as potent a bactericide”. In addition, the “renal injury, modified Jablonski score” value in data set [3] (rat cortex, compared with native gentamicin) was “significantly reduced; also recorded: significantly lower”. In data set [3] (rats, 7 days of exposure), the “kidney morphology, H&E-stained sections” value is recorded as “normal morphology”; the “lysosomal morphology in proximal tubule cells, indirect immunofluorescence” value is reported as “normal lysosomal morphology”; the “proximal tubular brush border, PAS staining” value was “more abundant and enriched PAS staining”. In the data set on viable cells, the “toxicity relative to control (no added aminoglycoside)” value was “no more toxic than the control”. Also, the “readthrough of the UGAC stop codon” value in the data set with UGAC stop codon is “intermediate effect on readthrough”. Moreover, the “dystrophin immunostaining in skeletal and heart muscle” value in the data set with dystrophin is “detected by immunohistochemistry on all muscle fibers and all heart muscle cells”. Besides, the “toxicity (cell death, % inviability)” value in the data set with COS7 cells (200 ug/ml) is given as “virtually no toxicity”. In addition, the “toxicity (cell death, % inviability)” value in the data set on COS7 cells (500 ug/ml) is “only very minimal toxicity”. Moreover, in the data set on LLC-PK1 cells, the “Golgi complex staining with Helix pomatia lectin” value is “faint” and the “lysosome appearance (Texas Red dextran)” value is recorded as “small, discrete vesicles found throughout the cellular cytosol”. Moreover, in the data set with Bacillus subtilus, the bactericidal properties entry is recorded as “excellent bactericidal properties”. The bactericidal properties result in [4] is given as “excellent bactericidal properties”. In addition, the “change in serum creatinine (in words)” value in data set [5] (100 mg/kg per day intraperitoneally, six daily doses) is on record as “no elevation in serum creatinine”. This compound also showed a serum creatinine in [5] (100 mg/kg per day intraperitoneally, six daily doses, up to 24 hours after the last injection) of at most 0.2 mg/dL. The “functional and pathologic changes characteristic of gentamicin nephrotoxicity” value in data set [5] (animal studies) is “failed to induce”. Further, in data set [6] (setting [7]), the “cell density, % of untreated (control) values” was 80.3±5.7% and the “percentage of cell death (toxicity index)” value is given as 3.1±1.3%. Moreover, in data set [6] (cultured cells, 24 hours of continual exposure), the “cytotoxicity in cell culture (in words)” value is “minimal cytotoxicity; also recorded: markedly reduced toxicity; also recorded: minimal evidence of toxicity”.

Turning to `NC[C@H]1O[C@H](O[C@H]2[C@H](O)[C@@H](O[C@H]3O[C@H](CO)[C@@H](O)[C@H](N)[C@H]3O)[C@H](N)C[C@@H]2N)[C@H](N)C[C@@H]1O` [Tobramicin], in the data set with IDUA and p53 genes, the “premature stop codons overcome” value is “not”.

As for `NCC[C@H](O)C(=O)N[C@@H]1C[C@H](N)[C@@H](O[C@H]2O[C@H](CN)[C@@H](O)[C@H](O)[C@H]2O)[C@H](O)[C@H]1O[C@H]1O[C@H](CO)[C@@H](O)[C@H](N)[C@H]1O` [Amikacin], the “premature stop codons overcome” value in the data set with IDUA and p53 genes is listed as “can be overcome”.

gentamicin C1 [reference compound]: the “toxicity relative to control (no added aminoglycoside)” value in the data set on viable cells worked out at 4.4 fold. Further, in the data set on UGAC stop codon, the “readthrough of the UGAC stop codon” value is reported as “minimal readthrough”. Moreover, the “toxicity ranking (cell death, % inviability)” value in the data set on COS7 cells (200 or 500 ug/ml) is “greatest toxicity”.

(Values after patent publication US9775854B2 (Indiana University Research and Technology Corp., priority 2006, dated 2017).)
